Laboratory results published in patent US8722850B2, “Self-assembling peptides and their use in the formation of hydrogels” (Universita' Degli Studi di Milano Bicocca, priority 2010, dated 2014).
“Also recorded” adds a separate entry of the source. Where a SMILES comes first, the peptide text is derived from it. The star is where a group is joined. Biotin = O=C1N[C@H]2[C@H](CS[C@H]2CCCCC(=O)*)N1

How the values were obtained:
spinal cord of rats [1] = assay: In vivo toxicity / biocompatibility, injections into the spinal cord, 3 days; settings: three days after injection, versus saline
Procedure: (§1) To test if the SAPs according to the present invention show any toxicity when used in vivo we assessed the tissue reaction to multiple injections of B24 into the spinal cord of rats. All procedures involving animals were performed according to EC guidelines (EC Council Directive 86/609, 1987), to the Italian legislation on animal is experimentation (Decreto L. vo 116/92) and to protocols approved by the Animal Care and Use Committee of the University of Milan-Bicocca (IACUC 37/07).
Female Sprague-Dawley rats weighting 200-250 gr (Charles River Laboratories) were divided into two groups: 1) animals receiving injections of saline solution (control group, n=3) and 2) animals treated with B24 (n=3). In the case of long term observations (1 month) similar injections of B24 were used (n=2). Rats were anesthetized with an intraperitoneal injection of ketamine (80 mg/kg) and xylazine (10 mg/kg). The spinal cord was exposed at the T9-T10 level, and, after laminectomy, animals were injected with B24 (1% aqueous solution) or saline solution using a Hamilton syringe held via a micromanipulator. The solutions were delivered at distances of 500 μm, and two injections of 0.5 μl each were made at each interval, for a total dose of 3 μl. After injection, the muscles were sutured and the skin was closed with wound clips. Rats were treated daily with analgesic (carprofen, 5 mg/kg) and antibiotic (enrofloxacin, 5 mg/kg). 3 days after surgery (for toxicity tests) or 1 month after surgery (nervous regeneration tests) animals were sacrificed by transcardial perfusion with 4% paraformaldehyde. Spinal cords were removed, embedded in OCT, frozen and sliced into 16 μm thick longitudinal sections. For immunofluorescence analysis slices were permeabilized and blocked with PBS/0.3% TritonX-100/10% Normal Goat Serum (NGS) for 1 hour at room temperature. […]

[2] = test system: human Neural Stem Cells (hNSCs); assay: Live/Dead cell imaging (calcein AM / ethidium homodimer); format: cell-based; settings: cells cultured for 10 days
Procedure: In vitro tests were performed following a previously adopted methodology (5). Briefly, cells (at a concentration of 6×10^4 cells/cm^2) were seeded on the top-surface of each assembled scaffold previously assembled into 96 multiwells. Initially, cells were cultured with basal medium supplemented with βFGF (10 ng/ml), added to enhance neuronal progeny differentiation. At 3 days in vitro (DIV), βFGF medium was replaced with Leukemia Inhibitory Factor (LIF, Chemicon) (20 ng/ml) and Brain Derived Neurotrophic Factor (BDNF, Peprotech) (20 ng/ml). Fresh medium was added every three days. Positive and negative controls consisted of CULTREX-BME® substrate (R&D systems) (1:100 dilution in basal medium) and untreated bottom well surfaces respectively.
Live/Dead cell imaging (MolecularProbes) was obtained by incubating cells cultured for 10 days with a staining solution containing 2.0 μM calcein AM and 4.0 μM ethidium homodimer in PBS at 37° C. for 60 min and visualized by inverted fluorescence microscope (Zeiss).

spinal cord of rats [3] = assay: In vivo nervous regeneration test, spinal cord injections, 1 month; settings: one month after injections
Procedure: as §1
Female Sprague-Dawley rats weighting 200-250 gr (Charles River Laboratories) were divided into two groups: 1) animals receiving injections of saline solution (control group, n=3) and 2) animals treated with B24 (n=3). In the case of long term observations (1 month) similar injections of B24 were used (n=2). Rats were anesthetized with an intraperitoneal injection of ketamine (80 mg/kg) and xylazine (10 mg/kg). The spinal cord was exposed at the T9-T10 level, and, after laminectomy, animals were injected with B24 (1% aqueous solution) or saline solution using a Hamilton syringe held via a micromanipulator. The solutions were delivered at distances of 500 μm, and two injections of 0.5 μl each were made at each interval, for a total dose of 3 μl. After injection, the muscles were sutured and the skin was closed with wound clips. […]

Structure (SMILES): C[C@H](NC(=O)CNC(=O)CNC(=O)CNC(=O)CCCC[C@@H]1SC[C@@H]2NC(=O)N[C@@H]21)C(=O)N[C@@H](Cc1ccccc1)C(=O)N[C@@H](C)C(=O)N[C@@H](CO)C(=O)N[C@H](C(=O)N[C@@H](CCCCN)C(=O)N[C@H](C(N)=O)[C@@H](C)O)[C@@H](C)O [peptide B24] (Biotin-GGGAFASTKT-NH2)
- apoptotic cells (Tunel) (spinal cord of rats [1]): negligible number
- infiltrated macrophages (CD68) (spinal cord of rats [1]): negligible number
- neurofilament H dephosphorilated (degenerating) nervous fibers (spinal cord of rats [1]): equally present in saline-injected and in B24-treated animals
- live/dead cell imaging [2]: distributed throughout the gel top surface; also recorded: a layer of widely branched cells
- chronic inflammation in the spinal cord (spinal cord of rats [3]): did not exert any chronic inflammation
